Experimental data published in US10231954B2, “Neurodegenerative therapies” (LYTIX BIOPHARMA AS, priority 2014, dated 2019).
Like-named read-outs stand apart in the source and are kept apart here.

Legend:
Format in all cases: biochemical
[1] = target: PAK6 (Homo sapiens, UniProt Q9NQU5); experiment: Kinase profiling PAK6; conditions: for remaining activity at 100 µM: read-out: residual kinase activity, PAK6
Text: (§1) Any value less that 25 is considered to be highly significant inhibition.

[2] = target: IRAK1 (Homo sapiens, UniProt P51617); experiment: Kinase profiling IRAK1; conditions: for remaining activity at 100 µM: read-out: residual kinase activity, IRAK1
Sequence of IRAK1 (P51617 whole entry, species assumed): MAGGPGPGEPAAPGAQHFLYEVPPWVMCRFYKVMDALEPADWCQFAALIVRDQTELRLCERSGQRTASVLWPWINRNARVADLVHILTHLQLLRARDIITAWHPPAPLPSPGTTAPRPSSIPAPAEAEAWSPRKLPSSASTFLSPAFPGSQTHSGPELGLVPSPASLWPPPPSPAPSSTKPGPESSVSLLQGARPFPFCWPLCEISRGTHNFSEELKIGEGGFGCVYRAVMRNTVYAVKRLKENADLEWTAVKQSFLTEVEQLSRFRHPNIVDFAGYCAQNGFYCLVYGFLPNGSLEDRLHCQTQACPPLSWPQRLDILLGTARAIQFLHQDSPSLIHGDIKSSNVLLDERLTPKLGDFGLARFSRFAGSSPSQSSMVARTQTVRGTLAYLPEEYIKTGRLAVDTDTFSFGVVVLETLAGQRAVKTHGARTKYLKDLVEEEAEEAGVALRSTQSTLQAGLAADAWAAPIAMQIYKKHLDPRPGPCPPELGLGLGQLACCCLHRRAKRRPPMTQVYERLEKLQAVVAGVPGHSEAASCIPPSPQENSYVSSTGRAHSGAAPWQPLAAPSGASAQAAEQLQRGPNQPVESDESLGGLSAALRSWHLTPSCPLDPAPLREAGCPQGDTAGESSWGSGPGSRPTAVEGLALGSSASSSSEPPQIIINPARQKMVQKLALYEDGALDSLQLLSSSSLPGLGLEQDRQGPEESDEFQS
Text: as §1

[3] = target: T1, p38d MAPK (Homo sapiens, UniProt O15264); experiment: Kinase profiling p38d MAPK; conditions: for remaining activity at 100 µM: read-out: residual kinase activity, p38d MAPK
T1 sequence (O15264 1-365): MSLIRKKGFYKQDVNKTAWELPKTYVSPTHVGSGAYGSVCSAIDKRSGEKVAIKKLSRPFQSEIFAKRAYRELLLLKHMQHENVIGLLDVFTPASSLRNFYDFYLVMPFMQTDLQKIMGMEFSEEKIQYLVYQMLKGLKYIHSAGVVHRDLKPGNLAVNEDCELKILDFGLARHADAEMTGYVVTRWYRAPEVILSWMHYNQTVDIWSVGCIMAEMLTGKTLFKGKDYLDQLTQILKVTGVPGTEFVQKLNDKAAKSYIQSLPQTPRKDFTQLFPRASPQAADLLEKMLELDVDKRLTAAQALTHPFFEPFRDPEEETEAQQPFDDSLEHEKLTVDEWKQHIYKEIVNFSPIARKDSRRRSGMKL
Text: as §1

[4] = target: T2, Aurora A (Homo sapiens, UniProt O14965); experiment: Kinase profiling Aurora A; conditions: for remaining activity at 100 µM: read-out: residual kinase activity, Aurora A
T2 sequence (O14965 1-403): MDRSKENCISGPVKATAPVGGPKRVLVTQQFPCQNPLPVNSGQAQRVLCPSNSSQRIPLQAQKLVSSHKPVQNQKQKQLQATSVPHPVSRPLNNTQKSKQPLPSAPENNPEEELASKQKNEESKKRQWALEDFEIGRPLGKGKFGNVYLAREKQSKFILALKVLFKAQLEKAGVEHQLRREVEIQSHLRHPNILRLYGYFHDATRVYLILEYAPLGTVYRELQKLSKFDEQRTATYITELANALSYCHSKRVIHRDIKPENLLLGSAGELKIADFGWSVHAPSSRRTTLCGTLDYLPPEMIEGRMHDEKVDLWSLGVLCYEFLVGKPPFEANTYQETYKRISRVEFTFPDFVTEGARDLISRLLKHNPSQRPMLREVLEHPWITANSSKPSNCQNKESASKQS
Text: as §1

[5] = target: T3, IKKe (Homo sapiens, UniProt Q14164); experiment: Kinase profiling IKKe; conditions: for remaining activity at 100 µM: read-out: residual kinase activity, IKKe
T3 sequence (Q14164 1-716): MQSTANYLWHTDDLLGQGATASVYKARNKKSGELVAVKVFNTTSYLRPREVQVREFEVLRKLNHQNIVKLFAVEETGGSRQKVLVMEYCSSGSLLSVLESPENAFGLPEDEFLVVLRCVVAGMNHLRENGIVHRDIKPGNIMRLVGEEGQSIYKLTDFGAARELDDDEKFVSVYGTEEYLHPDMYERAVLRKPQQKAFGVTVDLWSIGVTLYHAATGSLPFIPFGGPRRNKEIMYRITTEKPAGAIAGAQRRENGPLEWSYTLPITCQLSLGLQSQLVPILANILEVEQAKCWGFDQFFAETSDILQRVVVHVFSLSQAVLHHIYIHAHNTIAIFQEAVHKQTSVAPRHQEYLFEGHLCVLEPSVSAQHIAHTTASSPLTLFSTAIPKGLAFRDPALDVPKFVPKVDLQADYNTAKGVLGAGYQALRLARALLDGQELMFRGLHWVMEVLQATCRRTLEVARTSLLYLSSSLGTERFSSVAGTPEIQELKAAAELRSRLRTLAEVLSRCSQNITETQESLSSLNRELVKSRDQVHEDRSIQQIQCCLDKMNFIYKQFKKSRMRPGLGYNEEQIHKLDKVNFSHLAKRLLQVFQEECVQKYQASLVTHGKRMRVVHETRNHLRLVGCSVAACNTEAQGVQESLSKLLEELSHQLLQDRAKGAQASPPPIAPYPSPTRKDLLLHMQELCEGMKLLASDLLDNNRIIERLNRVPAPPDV
Text: as §1

[6] = target: JNK2 (Homo sapiens, UniProt P45984); experiment: Kinase profiling JNK2; conditions: for remaining activity at 100 µM: read-out: residual kinase activity, JNK2
Sequence of JNK2 (P45984 whole entry, species assumed): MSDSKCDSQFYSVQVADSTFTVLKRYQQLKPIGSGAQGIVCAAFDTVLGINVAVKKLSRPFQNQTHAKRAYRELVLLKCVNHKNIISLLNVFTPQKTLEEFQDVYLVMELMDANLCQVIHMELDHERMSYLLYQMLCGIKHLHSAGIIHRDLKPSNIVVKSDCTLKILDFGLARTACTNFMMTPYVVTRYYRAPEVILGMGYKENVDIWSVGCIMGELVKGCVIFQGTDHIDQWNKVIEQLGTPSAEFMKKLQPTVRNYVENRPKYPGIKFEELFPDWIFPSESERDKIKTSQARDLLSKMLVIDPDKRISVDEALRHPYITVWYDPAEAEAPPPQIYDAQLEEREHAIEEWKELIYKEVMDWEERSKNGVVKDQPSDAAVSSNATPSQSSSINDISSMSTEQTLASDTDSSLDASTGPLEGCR
Text: as §1

[7] = target: PAK2 (Homo sapiens, UniProt Q13177); experiment: Kinase profiling PAK2; conditions: for remaining activity at 100 µM: read-out: residual kinase activity, PAK2
Sequence of PAK2 (Q13177 whole entry, species assumed): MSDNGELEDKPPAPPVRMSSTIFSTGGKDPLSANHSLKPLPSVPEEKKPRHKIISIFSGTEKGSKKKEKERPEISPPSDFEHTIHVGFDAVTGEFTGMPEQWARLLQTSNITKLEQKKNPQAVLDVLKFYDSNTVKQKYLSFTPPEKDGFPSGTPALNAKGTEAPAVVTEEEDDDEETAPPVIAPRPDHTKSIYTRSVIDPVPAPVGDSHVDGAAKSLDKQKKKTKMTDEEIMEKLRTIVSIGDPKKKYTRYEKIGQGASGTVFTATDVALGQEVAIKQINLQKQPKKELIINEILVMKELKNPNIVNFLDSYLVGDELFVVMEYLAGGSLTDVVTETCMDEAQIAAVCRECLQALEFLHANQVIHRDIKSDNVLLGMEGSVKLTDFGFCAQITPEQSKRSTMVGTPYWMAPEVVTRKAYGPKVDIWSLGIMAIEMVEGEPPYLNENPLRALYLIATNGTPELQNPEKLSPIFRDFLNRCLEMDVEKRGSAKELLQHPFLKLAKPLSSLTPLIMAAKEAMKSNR
Text: as §1

[8] = target: TrkA (Homo sapiens, UniProt P04629); experiment: Kinase profiling TrkA; conditions: for remaining activity at 100 µM: read-out: residual kinase activity, TrkA
Sequence of TrkA (P04629 33-796, species assumed): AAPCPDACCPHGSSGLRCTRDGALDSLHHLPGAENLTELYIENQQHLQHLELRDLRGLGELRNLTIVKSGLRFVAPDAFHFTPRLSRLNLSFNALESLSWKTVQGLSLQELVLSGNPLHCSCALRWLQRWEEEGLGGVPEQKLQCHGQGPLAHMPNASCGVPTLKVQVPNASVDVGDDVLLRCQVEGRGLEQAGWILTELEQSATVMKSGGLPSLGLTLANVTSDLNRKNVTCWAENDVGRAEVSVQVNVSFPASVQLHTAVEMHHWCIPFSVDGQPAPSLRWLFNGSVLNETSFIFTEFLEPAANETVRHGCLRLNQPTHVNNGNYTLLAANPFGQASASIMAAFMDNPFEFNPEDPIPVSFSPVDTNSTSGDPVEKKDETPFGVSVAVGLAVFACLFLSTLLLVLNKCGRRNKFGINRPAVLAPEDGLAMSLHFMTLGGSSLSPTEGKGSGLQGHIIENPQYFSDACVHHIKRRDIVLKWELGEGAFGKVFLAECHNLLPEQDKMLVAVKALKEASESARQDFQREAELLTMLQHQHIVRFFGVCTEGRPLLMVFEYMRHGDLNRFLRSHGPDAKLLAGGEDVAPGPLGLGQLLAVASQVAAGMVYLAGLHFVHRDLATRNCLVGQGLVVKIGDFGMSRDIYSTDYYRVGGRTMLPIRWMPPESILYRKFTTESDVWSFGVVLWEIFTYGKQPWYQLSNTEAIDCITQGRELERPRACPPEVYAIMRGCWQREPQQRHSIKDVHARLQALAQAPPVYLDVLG
Text: as §1

[9] = target: MKK2 (Homo sapiens, UniProt P36507); experiment: Kinase profiling MKK2; conditions: for remaining activity at 100 µM: read-out: residual kinase activity, MKK2
Sequence of MKK2 (P36507 whole entry, species assumed): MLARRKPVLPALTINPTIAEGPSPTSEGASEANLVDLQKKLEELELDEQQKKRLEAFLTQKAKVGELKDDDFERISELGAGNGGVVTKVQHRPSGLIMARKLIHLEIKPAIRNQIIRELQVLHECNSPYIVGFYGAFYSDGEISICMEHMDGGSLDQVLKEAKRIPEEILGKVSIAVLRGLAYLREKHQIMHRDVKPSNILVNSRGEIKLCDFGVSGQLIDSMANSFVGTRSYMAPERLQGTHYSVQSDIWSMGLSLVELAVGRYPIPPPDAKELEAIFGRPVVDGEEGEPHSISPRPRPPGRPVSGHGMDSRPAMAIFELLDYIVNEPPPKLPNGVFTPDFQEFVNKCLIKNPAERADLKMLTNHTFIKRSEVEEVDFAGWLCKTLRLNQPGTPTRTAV
Text: as §1

[10] = target: T4, DDR2 (Homo sapiens, UniProt Q16832); experiment: Kinase profiling DDR2; conditions: for remaining activity at 100 µM: read-out: residual kinase activity, DDR2
T4 sequence (Q16832 22-855): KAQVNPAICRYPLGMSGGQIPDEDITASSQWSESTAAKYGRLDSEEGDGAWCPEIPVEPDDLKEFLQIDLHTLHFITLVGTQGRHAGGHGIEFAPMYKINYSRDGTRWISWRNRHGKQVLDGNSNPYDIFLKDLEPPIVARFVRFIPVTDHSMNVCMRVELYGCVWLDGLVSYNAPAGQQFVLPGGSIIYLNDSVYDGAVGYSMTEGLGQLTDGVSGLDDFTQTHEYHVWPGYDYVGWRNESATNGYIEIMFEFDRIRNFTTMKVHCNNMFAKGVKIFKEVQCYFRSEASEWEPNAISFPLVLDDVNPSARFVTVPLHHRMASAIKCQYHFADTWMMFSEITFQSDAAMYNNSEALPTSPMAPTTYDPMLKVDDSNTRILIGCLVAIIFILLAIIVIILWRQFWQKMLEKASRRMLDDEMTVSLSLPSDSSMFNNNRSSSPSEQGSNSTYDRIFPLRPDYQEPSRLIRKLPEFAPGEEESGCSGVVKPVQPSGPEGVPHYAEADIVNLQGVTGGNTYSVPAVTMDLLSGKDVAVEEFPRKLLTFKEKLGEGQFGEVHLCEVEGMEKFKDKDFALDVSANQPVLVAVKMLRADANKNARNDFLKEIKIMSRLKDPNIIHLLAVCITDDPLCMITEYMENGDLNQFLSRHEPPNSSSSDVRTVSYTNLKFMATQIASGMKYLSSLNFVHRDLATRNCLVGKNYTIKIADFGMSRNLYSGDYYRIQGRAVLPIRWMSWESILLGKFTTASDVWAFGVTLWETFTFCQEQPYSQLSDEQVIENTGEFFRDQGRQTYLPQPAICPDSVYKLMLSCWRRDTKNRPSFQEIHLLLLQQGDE
Text: as §1

[11] = target: IRR (Homo sapiens, UniProt P14616); experiment: Kinase profiling IRR; conditions: for remaining activity at 100 µM: read-out: residual kinase activity, IRR
Sequence of IRR (P14616 27-1297, species assumed): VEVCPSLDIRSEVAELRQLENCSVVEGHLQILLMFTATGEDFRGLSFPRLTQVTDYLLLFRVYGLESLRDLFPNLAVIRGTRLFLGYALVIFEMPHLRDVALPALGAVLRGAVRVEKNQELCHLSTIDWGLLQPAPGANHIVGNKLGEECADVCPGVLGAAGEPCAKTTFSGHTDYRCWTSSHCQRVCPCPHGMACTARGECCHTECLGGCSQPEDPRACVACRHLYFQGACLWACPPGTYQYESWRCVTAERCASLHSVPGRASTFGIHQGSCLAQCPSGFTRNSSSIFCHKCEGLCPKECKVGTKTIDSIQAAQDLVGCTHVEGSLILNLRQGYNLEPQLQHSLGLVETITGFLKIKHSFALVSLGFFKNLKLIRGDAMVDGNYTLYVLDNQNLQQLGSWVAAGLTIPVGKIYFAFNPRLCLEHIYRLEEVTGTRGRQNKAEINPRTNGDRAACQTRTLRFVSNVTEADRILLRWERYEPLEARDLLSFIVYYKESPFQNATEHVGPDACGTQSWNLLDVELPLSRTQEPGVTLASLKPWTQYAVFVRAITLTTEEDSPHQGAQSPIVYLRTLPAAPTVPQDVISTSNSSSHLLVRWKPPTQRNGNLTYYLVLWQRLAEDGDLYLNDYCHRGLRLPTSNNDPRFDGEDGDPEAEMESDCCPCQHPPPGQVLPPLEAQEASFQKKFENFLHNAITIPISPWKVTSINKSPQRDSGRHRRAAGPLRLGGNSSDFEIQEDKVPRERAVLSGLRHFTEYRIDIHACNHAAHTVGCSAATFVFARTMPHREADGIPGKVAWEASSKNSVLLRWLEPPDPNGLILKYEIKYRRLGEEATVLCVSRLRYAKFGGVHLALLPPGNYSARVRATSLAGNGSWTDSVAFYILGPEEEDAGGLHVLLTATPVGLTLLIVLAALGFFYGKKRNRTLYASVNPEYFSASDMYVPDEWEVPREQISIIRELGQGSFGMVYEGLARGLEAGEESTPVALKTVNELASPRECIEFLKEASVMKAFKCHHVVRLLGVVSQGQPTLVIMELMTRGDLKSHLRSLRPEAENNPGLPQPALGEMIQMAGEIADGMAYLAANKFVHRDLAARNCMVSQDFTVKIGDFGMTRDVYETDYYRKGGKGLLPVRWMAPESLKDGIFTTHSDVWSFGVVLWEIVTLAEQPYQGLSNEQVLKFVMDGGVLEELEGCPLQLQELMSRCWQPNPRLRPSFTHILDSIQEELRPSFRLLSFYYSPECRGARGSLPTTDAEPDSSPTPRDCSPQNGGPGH
Text: as §1

[12] = tested on: PHK; experiment: Kinase profiling PHK
Text: as §1

[13] = target: TTBK2 (Homo sapiens, UniProt Q6IQ55); experiment: Kinase profiling TTBK2; conditions: for remaining activity at 100 µM: read-out: residual kinase activity, TTBK2
Text: as §1

[14] = 100 micromolar inhibitor concentration, 100 is no change
[15] = 100 micromolar inhibitor, 100 = no change

Sequence of PAK6 (Q9NQU5 whole entry, species assumed): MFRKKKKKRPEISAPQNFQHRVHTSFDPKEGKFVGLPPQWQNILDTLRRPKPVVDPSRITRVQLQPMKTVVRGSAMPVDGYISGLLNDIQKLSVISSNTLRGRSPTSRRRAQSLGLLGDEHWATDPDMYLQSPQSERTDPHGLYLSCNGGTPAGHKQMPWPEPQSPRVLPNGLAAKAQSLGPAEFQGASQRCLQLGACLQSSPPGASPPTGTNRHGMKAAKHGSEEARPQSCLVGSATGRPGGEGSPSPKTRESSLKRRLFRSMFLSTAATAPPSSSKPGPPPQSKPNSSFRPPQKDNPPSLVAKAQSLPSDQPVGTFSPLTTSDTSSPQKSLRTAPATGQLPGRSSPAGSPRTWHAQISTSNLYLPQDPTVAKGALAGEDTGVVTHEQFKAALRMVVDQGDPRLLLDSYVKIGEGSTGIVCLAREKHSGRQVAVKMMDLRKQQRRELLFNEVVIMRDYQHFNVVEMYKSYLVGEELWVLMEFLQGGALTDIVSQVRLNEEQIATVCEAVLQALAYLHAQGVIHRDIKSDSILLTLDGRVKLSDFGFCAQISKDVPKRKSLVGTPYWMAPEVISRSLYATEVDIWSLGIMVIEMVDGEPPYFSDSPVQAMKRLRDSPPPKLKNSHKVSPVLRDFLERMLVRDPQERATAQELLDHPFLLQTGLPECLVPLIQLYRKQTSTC

Row | SMILES | residual kinase activity, PHK [12, 14] | residual kinase activity, PAK6 [1, 14] | residual kinase activity, IRAK1 [2, 14] | residual kinase activity, p38d MAPK [3, 14] | residual kinase activity, Aurora A [4, 14] | residual kinase activity, IKKe [5, 14] | residual kinase activity, JNK2 [6, 14] | residual kinase activity, PAK2 [7, 14] | residual kinase activity, TrkA [8, 14] | residual kinase activity, MKK2 [9, 14] | residual kinase activity, DDR2 [10, 14] | residual kinase activity, IRR [11, 14] | residual kinase activity, TTBK2 [13, 14] | further results
1 | CC(=O)Nc1nc2cc(F)ccc2s1 [Compound 03-77] | 89 |  |  |  |  |  |  |  |  |  |  |  |  | remaining activity at 100 µM [1, 14]: 106%; remaining activity at 100 µM [2, 14]: 46%; remaining activity at 100 µM [3, 14]: 76%; remaining activity at 100 µM [4, 14]: 100%; remaining activity at 100 µM [5, 14]: 91%; remaining activity at 100 µM [6, 14]: 99%; remaining activity at 100 µM [7, 14]: 11%; remaining activity at 100 µM [8, 14]: 59%; remaining activity at 100 µM [9, 14]: 101%; remaining activity at 100 µM [10, 14]: 101%; remaining activity at 100 µM [11, 14]: 57%; remaining activity at 100 µM [13, 14]: 93%
2 | CC(=O)Nc1nc2cc(C)ccc2s1 [Compound 03-76] | 87 | 108 | 59 | 85 | 109 | 89 | 105 | 102 | 56 | 155 | 110 | 66 | 97 | 
3 | O=C(Nc1nc2ccc(O)cc2s1)c1cccnc1 [Compound 08-44] | 43 | 94 | 37 | 62 | 99 | 50 | 90 | 85 | 71 | 48 | 93 | 45 | 51 | 
4 | O=C(Nc1nc2ccc(O)cc2s1)c1ccccn1 [Compound 03-12] | 37 | 101 | 37 | 77 | 95 | 78 | 101 | 104 | 49 | 82 | 104 | 82 | 102 | 
5 | CC(=O)Nc1nc2ccccc2s1 [Compound 03-32] | 94 | 92 | 65 | 80 | 109 | 109 | 105 | 90 | 77 | 96 | 97 | 63 | 85 | 
6 | CC(=O)Nc1nc2cc(C(F)(F)F)ccc2s1 [Compound 03-73] | 91 |  |  |  |  |  |  |  |  |  |  |  |  | remaining activity at 100 µM [1, 14]: 11%; remaining activity at 100 µM [2, 14]: 85%; remaining activity at 100 µM [3, 14]: 52%; remaining activity at 100 µM [4, 14]: 96%; remaining activity at 100 µM [5, 14]: 93%; remaining activity at 100 µM [6, 14]: 111%; remaining activity at 100 µM [7, 14]: 85%; remaining activity at 100 µM [8, 14]: 74%; remaining activity at 100 µM [9, 14]: 98%; remaining activity at 100 µM [10, 14]: 111%; remaining activity at 100 µM [11, 14]: 61%; remaining activity at 100 µM [13, 14]: 91%
7 | CC(=O)Nc1cccc(NC(=O)c2nc3ccc(O)cc3s2)c1 [Compound 03-07, N-(3-acetamidophenyl)-6-hydroxybenzo[d]thiazole-2-carboxamide] |  |  |  |  |  |  |  |  |  |  |  |  |  | remaining activity at 100 µM [1, 15]: 106%; remaining activity at 100 µM [2, 15]: 49%; remaining activity at 100 µM [3, 15]: 81%; remaining activity at 100 µM [4, 15]: 110%; remaining activity at 100 µM [5, 15]: 73%; remaining activity at 100 µM [6, 15]: 104%; remaining activity at 100 µM [7, 15]: 90%; remaining activity at 100 µM [8, 15]: 59%; remaining activity at 100 µM [9, 15]: 88%; remaining activity at 100 µM [10, 15]: 90%; remaining activity at 100 µM [11, 15]: 75%; residual kinase activity, PHK [12, 15]: 55; remaining activity at 100 µM [13, 15]: 71%
